# ChEMBL document CHEMBL2439971, “Design, synthesis and antiproliferative evaluation of fluorenone analogs with DNA topoisomerase I inhibitory properties” (Bioorg Med Chem, 2013)
# pIC50: −log10 of the molar value. The source made the active and inactive calls. The calls are words filed in the database; no cut-off is given here.
# Key:
# [1] = test system: MDA-MB-435; assay: Cytotoxicity against human MDA-MB-435 cells at 10 uM after 48 hrs by sulforhodamine B assay relative to control; format: functional
# [2] = test system: SNB-75; assay: Cytotoxicity against human SNB75 cells at 10 uM after 48 hrs by sulforhodamine B assay relative to control; format: functional
# [3] = species: Homo sapiens; assay: Inhibition of telomerase (unknown origin) at 10 uM TRAP assay
# [4] = test system: SF-539; assay: Cytotoxicity against human SF539 cells at 10 uM after 48 hrs by sulforhodamine B assay relative to control; format: functional
# [5] = test system: MCF7; assay: Cytotoxicity against human MCF7 cells at 10 uM after 48 hrs by sulforhodamine B assay relative to control; format: functional
# [6] = test system: UACC-62; assay: Cytotoxicity against human UACC62 cells at 10 uM after 48 hrs by sulforhodamine B assay relative to control; format: functional
# [7] = test system: KM12; assay: Cytotoxicity against human KM12 cells at 10 uM after 48 hrs by sulforhodamine B assay relative to control; format: functional
# [8] = test system: IGROV-1; assay: Cytotoxicity against human IGROV1 cells at 10 uM after 48 hrs by sulforhodamine B assay relative to control; format: functional
# [9] = test system: Malme-3M; assay: Cytotoxicity against human MALME-3M cells at 10 uM after 48 hrs by sulforhodamine B assay relative to control; format: functional
# [10] = test system: OVCAR-3; assay: Cytotoxicity against human OVCAR3 cells at 10 uM after 48 hrs by sulforhodamine B assay relative to control; format: functional
# [11] = test system: NCI/ADR-RES; assay: Cytotoxicity against human NCI/ADR-RES cells at 10 uM after 48 hrs by sulforhodamine B assay relative to control; format: functional
# [12] = test system: PC-3; assay: Cytotoxicity against human PC3 cells after 48 hrs by sulforhodamine B assay; format: functional, cell-based; settings: PC-3, 48 h
# [13] = test system: NCI-H23; assay: Cytotoxicity against human NCI-H23 cells at 10 uM after 48 hrs by sulforhodamine B assay relative to control; format: functional
# [14] = test system: LOX IMVI; assay: Cytotoxicity against human LOXIMVI cells at 10 uM after 48 hrs by sulforhodamine B assay relative to control; format: functional
# [15] = test system: HCC 2998; assay: Cytotoxicity against human HCC2998 cells at 10 uM after 48 hrs by sulforhodamine B assay relative to control; format: functional
# [16] = test system: SNB-19; assay: Cytotoxicity against human SNB19 cells at 10 uM after 48 hrs by sulforhodamine B assay relative to control; format: functional
# [17] = test system: SR; assay: Cytotoxicity against human SR cells at 10 uM after 48 hrs by sulforhodamine B assay relative to control; format: functional
# [18] = test system: NCI-H322M; assay: Cytotoxicity against human NCI-H322M cells at 10 uM after 48 hrs by sulforhodamine B assay relative to control; format: functional
# [19] = test system: SW-620; assay: Cytotoxicity against human SW620 cells at 10 uM after 48 hrs by sulforhodamine B assay relative to control; format: functional
# [20] = test system: BT-549; assay: Cytotoxicity against human BT549 cells at 10 uM after 48 hrs by sulforhodamine B assay relative to control; format: functional
# [21] = test system: UO-31; assay: Cytotoxicity against human UO31 cells at 10 uM after 48 hrs by sulforhodamine B assay relative to control; format: functional
# [22] = test system: SK-MEL-5; assay: Cytotoxicity against human SK-MEL-5 cells at 10 uM after 48 hrs by sulforhodamine B assay relative to control; format: functional
# [23] = test system: SK-MEL-2; assay: Cytotoxicity against human SK-MEL-2 cells at 10 uM after 48 hrs by sulforhodamine B assay relative to control; format: functional
# [24] = test system: SN12C; assay: Cytotoxicity against human SN12C cells at 10 uM after 48 hrs by sulforhodamine B assay relative to control; format: functional
# [25] = test system: PC-3; assay: Cytotoxicity against human PC3 cells at 10 uM after 48 hrs by sulforhodamine B assay relative to control; format: functional
# [26] = test system: RXF 393; assay: Cytotoxicity against human RXF393 cells at 10 uM after 48 hrs by sulforhodamine B assay relative to control; format: functional
# [27] = test system: T47D; assay: Cytotoxicity against human T47D cells at 10 uM after 48 hrs by sulforhodamine B assay relative to control; format: functional
# [28] = test system: NCI-H460; assay: Cytotoxicity against human NCI-H460 cells at 10 uM after 48 hrs by sulforhodamine B assay relative to control; format: functional
# [29] = test system: 786-0; assay: Cytotoxicity against human 786-0 cells at 10 uM after 48 hrs by sulforhodamine B assay relative to control; format: functional
# [30] = test system: HL-60(TB); assay: Cytotoxicity against human HL-60(TB) cells at 10 uM after 48 hrs by sulforhodamine B assay relative to control; format: functional
# [31] = test system: A549; assay: Cytotoxicity against human A549 cells at 10 uM after 48 hrs by sulforhodamine B assay relative to control; format: functional
# [32] = test system: NCI-H522; assay: Cytotoxicity against human NCI-H522 cells at 10 uM after 48 hrs by sulforhodamine B assay relative to control; format: functional
# [33] = test system: UACC-257; assay: Cytotoxicity against human UACC257 cells at 10 uM after 48 hrs by sulforhodamine B assay relative to control; format: functional
# [34] = Cytotoxicity against human EKVX cells at 10 uM after 48 hrs by sulforhodamine B assay relative to control; format: functional
# [35] = test system: HCT-15; assay: Cytotoxicity against human HCT15 cells at 10 uM after 48 hrs by sulforhodamine B assay relative to control; format: functional
# [36] = test system: SF-295; assay: Cytotoxicity against human SF295 cells at 10 uM after 48 hrs by sulforhodamine B assay relative to control; format: functional
# [37] = test system: OVCAR-4; assay: Cytotoxicity against human OVCAR4 cells at 10 uM after 48 hrs by sulforhodamine B assay relative to control; format: functional
# [38] = test system: NCI-H226; assay: Cytotoxicity against human NCI-H226 cells at 10 uM after 48 hrs by sulforhodamine B assay relative to control; format: functional
# [39] = test system: SK-MEL-28; assay: Cytotoxicity against human SK-MEL-28 cells at 10 uM after 48 hrs by sulforhodamine B assay relative to control; format: functional
# [40] = test system: HOP-62; assay: Cytotoxicity against human HOP62 cells at 10 uM after 48 hrs by sulforhodamine B assay relative to control; format: functional
# [41] = test system: SF-268; assay: Cytotoxicity against human SF268 cells at 10 uM after 48 hrs by sulforhodamine B assay relative to control; format: functional
# [42] = test system: ACHN; assay: Cytotoxicity against human ACHN cells at 10 uM after 48 hrs by sulforhodamine B assay relative to control; format: functional
# [43] = test system: DU-145; assay: Cytotoxicity against human DU145 cells at 10 uM after 48 hrs by sulforhodamine B assay relative to control; format: functional
# [44] = test system: HCT-116; assay: Cytotoxicity against human HCT116 cells at 10 uM after 48 hrs by sulforhodamine B assay relative to control; format: functional
# [45] = test system: OVCAR-8; assay: Cytotoxicity against human OVCAR8 cells at 10 uM after 48 hrs by sulforhodamine B assay relative to control; format: functional
# [46] = test system: OVCAR-5; assay: Cytotoxicity against human OVCAR5 cells at 10 uM after 48 hrs by sulforhodamine B assay relative to control; format: functional
# [47] = test system: TK-10; assay: Cytotoxicity against human TK10 cells at 10 uM after 48 hrs by sulforhodamine B assay relative to control; format: functional
# [48] = test system: CCRF-CEM; assay: Cytotoxicity against human CCRF-CEM cells at 10 uM after 48 hrs by sulforhodamine B assay relative to control; format: functional
# [49] = test system: K562; assay: Cytotoxicity against human K562 cells at 10 uM after 48 hrs by sulforhodamine B assay relative to control; format: functional
# [50] = Cytotoxicity against human Hs 578T cells at 10 uM after 48 hrs by sulforhodamine B assay relative to control; format: functional
# [51] = test system: U-251; assay: Cytotoxicity against human U251 cells at 10 uM after 48 hrs by sulforhodamine B assay relative to control; format: functional
# [52] = test system: CAKI-1; assay: Cytotoxicity against human CAKI-1 cells at 10 uM after 48 hrs by sulforhodamine B assay relative to control; format: functional
# [53] = test system: RPMI-8226; assay: Cytotoxicity against human RPMI8226 cells at 10 uM after 48 hrs by sulforhodamine B assay relative to control; format: functional
# [54] = test system: MOLT-4; assay: Cytotoxicity against human MOLT4 cells at 10 uM after 48 hrs by sulforhodamine B assay relative to control; format: functional
# [55] = test system: M14; assay: Cytotoxicity against human M14 cells at 10 uM after 48 hrs by sulforhodamine B assay relative to control; format: functional
# [56] = test system: MDA-MB-468; assay: Cytotoxicity against human MDA-MB-468 cells at 10 uM after 48 hrs by sulforhodamine B assay relative to control; format: functional
# [57] = test system: HT-29; assay: Cytotoxicity against human HT-29 cells at 10 uM after 48 hrs by sulforhodamine B assay relative to control; format: functional
# [58] = test system: COLO 205; assay: Cytotoxicity against human COLO205 cells at 10 uM after 48 hrs by sulforhodamine B assay relative to control; format: functional
# [59] = test system: MDA-MB-231; assay: Cytotoxicity against human MDA-MB-231 cells at 10 uM after 48 hrs by sulforhodamine B assay relative to control; format: functional
smiles,measurement,setting,value
CCNCC(=O)Nc1ccc2c(c1)C(=O)c1cc(NC(=O)CNCC)ccc1-2,Activity,[1],65.72%
same,Activity,[2],92.67%
same,inhibition,[3],inactive
same,Activity,[4],102.19%
same,Activity,[5],40.53%
same,Activity,[6],110.09%
same,Activity,[7],77.37%
same,Activity,[8],97.57%
same,Activity,[9],113.96%
same,Activity,[10],90.91%
same,Activity,[11],93.46%
same,pIC50,[12],5.36
same,Activity,[13],78.18%
same,Activity,[14],72.19%
same,Activity,[15],85.37%
same,Activity,[16],95.76%
same,Activity,[17],81.75%
same,Activity,[18],67.74%
same,Activity,[19],51.79%
same,Activity,[20],123.2%
same,Activity,[21],89.54%
same,Activity,[22],93.43%
same,Activity,[23],106.9%
same,Activity,[24],77.91%
same,Activity,[25],67.64%
same,Activity,[26],91.9%
same,Activity,[27],88.81%
same,Activity,[28],70.36%
same,Activity,[29],101.23%
same,Activity,[30],95.53%
same,Activity,[31],62.52%
same,Activity,[32],82.16%
same,Activity,[33],97.32%
same,Activity,[34],90.83%
same,Activity,[35],95.25%
same,Activity,[36],91.26%
same,Activity,[37],69.72%
same,Activity,[38],99.42%
same,Activity,[39],82.07%
same,Activity,[40],71.54%
same,Activity,[41],78.21%
same,Activity,[42],69.43%
same,Activity,[43],69.67%
same,Activity,[44],64.57%
same,Activity,[45],61.15%
same,Activity,[46],116.02%
same,Activity,[47],88.37%
same,Activity,[48],66.36%
same,Activity,[49],53.9%
same,Activity,[50],91.4%
same,Activity,[51],55.71%
same,Activity,[52],94.69%
same,Activity,[53],91.09%
same,Activity,[54],61.34%
same,Activity,[55],90.37%
same,Activity,[56],63.55%
same,Activity,[57],48.89%
same,Activity,[58],64.33%
same,Activity,[59],77.38%
